US11827628B2, “Compositions and methods for inhibition of the JAK pathway” (Rigel Pharmaceuticals, Inc., priority 2005, dated 2023)
Where a name gives a salt, the structure may show the parent alone.

tested on: IL-4 stimulated expression of CD23 in human Ramos B cells (JAK-1 and JAK-3); experiment: Assay for Ramos B-Cell Line Stimulated with IL-4 (CD23 upregulation, FACS); assay type: cell-based; settings: Homo sapiens, Ramos, Ramos B cells stimulated with IL-4, CD23 expression by FACS; read-out: IC50, Example 41
Procedure, shortened: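 Log-phase Ramos cells, 1 h compound pre-incubation at 37 °C; IL-4 50 units/mL final, 20-24 h; CD23-PE stain, FACS; IC50.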

| IC50 [nM] | Compound |
| --- | --- |
| 96 | C#CCNS(=O)(=O)c1cccc(Nc2nc(Nc3ccc(C)c(S(N)(=O)=O)c3)ncc2F)c1 [VI-79, N2-(3-Aminosulfonyl-4-methylphenyl)-5-fluoro-N4-[3-(prop-2-ynylaminosulfonyl)phenyl]-2,4-pyrimidinediamine] |
| 6090 | Cc1ccc(Nc2ncc(F)c(Nc3ccc4nc(O)cc(C)c4c3)n2)cc1S(N)(=O)=O [VII-73, N2-(3-Aminosulfonyl-4-methylphenyl)-5-fluoro-N4-(2-hydroxy-4-methylquinolin-6-yl)-2,4-pyrimidinediamine] |
| 3070 | Cc1ccc2cccc(Nc3nc(Nc4cccc(S(N)(=O)=O)c4)ncc3F)c2n1 [VII-81, N2-(3-Aminosulfonylphenyl)-5-fluoro-N4-(2-methylquinolin-8-yl)-2,4-pyrimidinediamine] |
| 161 | C#CCNS(=O)(=O)c1cccc(Nc2ncc(F)c(Nc3ccc(OCC#C)cc3)n2)c1 [VI-78, 5-Fluoro-N2-[3-(prop-2-ynylaminosulfonyl)phenyl]-N4-[4-(prop-2-ynyloxy)phenyl]-2,4-pyrimidinediamine] |
| 8880 | Cc1ccc(Nc2ncc(F)c(Nc3ccc4c(C(N)=O)c[nH]c4c3)n2)cc1S(N)(=O)=O [IX-9, N4-[3-(Aminocarbonyl)-1H-indol-6-yl]-N2-(3-aminosulfonyl-4-methylphenyl)-5-fluoro-2,4-pyrimidinediamine] |
| 2310 | Cc1ccc(Nc2ncc(F)c(Nc3ccc(C(=O)N4CCS(=O)(=O)CC4)cc3)n2)cc1S(N)(=O)=O [IX-38, N2-(3-Aminosulfonyl-4-methylphenyl)-N4-[4-(1,1-dioxo-4-thiomorpholinyl)carbonylphenyl]-5-fluoro-2,4-pyrimidinediamine] |

same assay, conditions: Homo sapiens, Ramos, Ramos B-cell line stimulated with IL-4; CD23 expression by FACS; read-out: IC50, Example 41

| IC50 [nM] | Compound |
| --- | --- |
| 2950 | Cc1ccc(Nc2ncc(F)c(Nc3ccc(OCC(N)=O)c(CO)c3)n2)cc1S(N)(=O)=O [Compound I-106, N4-(4-Aminocarbonylmethoxy-3-hydroxymethylphenyl)-N2-(3-aminosulfonyl-4-methylphenyl)-5-fluoro-2,4-pyrimidinediamine] |
| 1430 | C=CC(=O)NCc1ccc(Nc2nc(Nc3ccc(S(N)(=O)=O)cc3)ncc2F)cc1 [III-44, N4-(4-Acrylamidomethylphenyl)-N2-(4-aminosulfonylphenyl)-5-fluoro-2,4-pyrimidinediamine] |
| 532 | COc1cc(Nc2nc(Nc3ccc(C)c(S(N)(=O)=O)c3)ncc2F)cc(OCC#N)c1OC [Compound I-2, N2-(3-Aminosulphonyl-4-methylphenyl)-N4-(3-cyanomethoxy-4,5-dimethoxyphenyl)-5-fluoro-2,4-pyrimidinediamine] |
| 364 | CNC(=O)COc1ccc(Nc2nc(Nc3ccc(S(N)(=O)=O)cc3)ncc2F)cc1Cl [Compound I-146, N2-(4-Aminosulfonylphenyl)-N4-(3-chloro-4-methylaminocarbonylmethoxyphenyl)-5-fluoro-2,4-pyrimidinediamine] |
| 1170 | COc1cc(Nc2nc(Nc3ccc(C)c(S(N)(=O)=O)c3)ncc2F)ccc1OCC(N)=O [Compound I-105, N4-(4-Aminocarbonylmethoxy-3-methoxyphenyl)-N2-(3-aminosulfonyl-4-methylphenyl)-5-fluoro-2,4-pyrimidinediamine] |
| 380 | NC(=O)COc1ccc(Nc2nc(Nc3ccc(S(N)(=O)=O)cc3)ncc2F)cc1F [Compound I-100, N4-(4-Aminocarbonylmethoxy-3-fluorophenyl)-N2-(4-aminosulfonylphenyl)-5-fluoro-2,4-pyrimidinediamine] |

same assay, conditions: Ramos B cells stimulated with IL-4, CD23 expression by FACS; read-out: IC50, Example 41

| IC50 [nM] | Compound |
| --- | --- |
| 1650 | Cc1ccc(Nc2ncc(F)c(Nc3cccc(CNC(N)=O)c3)n2)cc1S(N)(=O)=O [III-115, N4-(3-aminocarbonylaminomethyl)phenyl-N2-(3-aminosulfonyl-4-methyl)phenyl-5-fluoro-2,4-pyrimidinediamine] |
| 961 | CN1C(=O)C(C)(C)S(=O)(=O)c2ccc(Nc3nc(Nc4ccc(S(N)(=O)=O)cc4)ncc3F)cc21 [VII-46, N2-(4-Aminosulphonylphenyl)-5-fluoro-N4-(2,2,4-trimethyl-1,1,3-trioxo-benzo[1,4]thiazin-6-yl)-2,4-pyrimidinediamine] |
| 9660 | C#CCOc1ccc(Nc2nc(Nc3ccc(C)c(S(=O)(=O)NC(=O)CC)c3)ncc2F)cc1 [VI-56, 5-Fluoro-N2-(4-methyl-3-propionylaminosulfonylphenyl)-N4-[4-(prop-2-ynyloxy)phenyl]-2,4-pyrimidinediamine] |
| 115 | CNS(=O)(=O)c1cc(Nc2ncc(F)c(NCCc3ccc(-n4ccnc4)cc3)n2)ccc1C [III-89, 5-Fluoro-N2-[3-(N-methylaminosulfony)-4-methylphenyl]-N4-[4-(1-imidazolyl)phenethyl]-2,4-pyrimidinediamine] |
| 8620 | CCOC(=O)CN(c1ccc(OC)c(Cl)c1)c1nc(Nc2cccc(S(N)(=O)=O)c2)ncc1C(=O)OCC [VI-24, N2-(3-Aminosulfonylphenyl)-5-carboethoxy-N4-(N-carboethoxymethylene-N-3-chloro-4-methoxyphenyl)-2,4-pyrimidinediamine] |

same assay, conditions: Ramos B-cell line stimulated with IL-4; CD23 expression by FACS; read-out: IC50, Example 41

| IC50 [nM] | Compound |
| --- | --- |
| 3080 | Cc1ccc(Nc2ncc(F)c(Nc3ccc(OCc4n[nH]c(=O)[nH]4)cc3)n2)cc1S(N)(=O)=O [Compound I-202, N2-(3-Aminosulfonyl-4-methylphenyl)-5-fluoro-N4-[4-(2,4-dihydro-3-oxo-1,2,4-triazol-5-yl)methyleneoxyphenyl]-2,4-pyrimidinediamine] |
| 536 | N#CCc1ccc(Nc2nc(Nc3ccc(S(N)(=O)=O)cc3)ncc2F)cc1 [III-3, N2-(4-Aminosulfonyl)phenyl-N4-(4-cyanomethyl)phenyl-5-fluoro-2,4-pyrimidinediamine] |
| 178 | NC(=O)CCc1ccc(Nc2nc(Nc3ccc(S(N)(=O)=O)cc3)ncc2F)cc1 [III-49, N4-[4-(2-Aminocarboxylethylene)phenyl]-N2-(4-aminosulfonylphenyl)-5-fluoro-2,4-pyrimidinediamine] |
| 2910 | CCN(CC)CCNS(=O)(=O)c1cccc(Nc2ncc(F)c(Nc3cccc(OCc4cccnc4)c3)n2)c1 [Compound I-187, N2-[3-(2-N,N-Diethylaminoethyl)aminosulfonylphenyl)-5-fluoro-N4-[3-(3-pyridinyl)methyleneoxyphenyl]-2,4-pyrimidinediamine] |
| 13 | Cc1cnc(Nc2ccc(S(N)(=O)=O)cc2)nc1Nc1ccc(OCc2ccccn2)cc1 [Compound I-181, N2-(4-Aminosulfonylphenyl)-5-methyl-N4-[4-(2-pyridinyl)methyleneoxyphenyl]-2,4-pyrimidinediamine] |
| 1400 | Cc1ccc(Nc2nc(Nc3cccc(S(N)(=O)=O)c3)ncc2F)cc1OCC(=O)N1CCOCC1 [Compound I-208, N2-(3-Aminosulfonylphenyl)-5-fluoro-N4-[4-methyl-3-(2-morpholinocarbonylmethyleneoxy)phenyl]-2,4-pyrimidinediamine] |

same assay, conditions: Ramos B-cell line stimulated with IL-4; CD23 expression by FACS; sodium salt; read-out: IC50, Example 41

| IC50 [nM] | Compound |
| --- | --- |
| 520 | CCC(=O)NS(=O)(=O)c1cccc(Nc2ncc(F)c(Nc3ccc(OCc4cc(C)on4)cc3)n2)c1 [Compound I-242, 5-Fluoro-N4-[4-(5-methylisoxazol-3-yl)methyleneoxyphenyl]-N2-(3-N-propanamido)sulfonylphenyl)]-2,4-pyrimidinediamine sodium salt] |
| 6440 | CC(=O)NS(=O)(=O)c1cc(Nc2ncc(F)c(Nc3ccc(OCC#N)cc3)n2)ccc1C [Compound I-38, N2-(3-Acetylaminosulfonyl-4-methyl)phenyl-N4-(4-cyanomethyleneoxy)phenyl-5-fluoro-2,4-pyrimidinediamine sodium salt] |
